Earlier results in patent US4276288A, “Dehydrooligopeptides, their production and their medicinal use” (Troponwerke GmbH & Co., KG, priority 1976, dated 1981).
Read-outs that look alike come from different tables or passages of the source.

System: tumour cells

O=P1(N(CCCl)CCCl)NCCCO1 (centres unmarked) [cyclophosphamide]
tumour cells destroyed (LD10 dosage): 99.999% | tumour cells destroyed (one eighth of the LD10 dose): 90%
